Measurements from the NIST ThermoML archive (doi:10.1021/acs.jced.8b00132).
“And” between values parts separate entries of the source, which are not always exact repeats. Identical values can stand only once. ± gives the expanded uncertainty stated by the source.

O=C(C(F)(F)C(F)(F)F)C(F)(C(F)(F)F)C(F)(F)F [dodecafluoro-2-methylpentan-3-one]
Settings	thermal conductivity
303.37 K, 4422 kPa, Liquid, transient hot wire	0.05844 ± 0.0012 W/m/K
303.37 K, 4436 kPa, Liquid, transient hot wire	0.05841 ± 0.0012 W/m/K
303.38 K, 22430 kPa, Liquid, transient hot wire	0.06522 ± 0.0013 W/m/K
303.38 K, 22431 kPa, Liquid, transient hot wire	0.06529 ± 0.0014 W/m/K
303.46 K, 36 kPa, Gas, transient hot wire	0.01187 ± 0.0047 W/m/K
303.46 K, 38 kPa, Gas, transient hot wire	0.01198 ± 0.00076 W/m/K
303.46 K, 91 kPa, Liquid, transient hot wire	0.05636 ± 0.0012 W/m/K
303.46 K, 92 kPa, Liquid, transient hot wire	0.05637 ± 0.0012 W/m/K
311.78 K, 60 kPa, Gas, transient hot wire	0.01276 ± 0.0008 W/m/K
311.78 K, 63 kPa, Gas, transient hot wire	0.01265 ± 0.00079 W/m/K
311.79 K, 63 kPa, Gas, transient hot wire	0.01255 ± 0.00078 W/m/K
311.95 K, 34 kPa, Gas, transient hot wire	0.01258 ± 0.00079 W/m/K
312.1 K, 61 kPa, Gas, transient hot wire	0.01276 ± 0.00079 W/m/K
312.11 K, 63 kPa, Gas, transient hot wire	0.0127 ± 0.00079 W/m/K
312.12 K, 63 kPa, Gas, transient hot wire	0.01261 ± 0.00078 W/m/K
312.3 K, 34 kPa, Gas, transient hot wire	0.01253 ± 0.00079 W/m/K
312.43 K, 61 kPa, Gas, transient hot wire	0.01283 ± 0.0008 W/m/K
312.43 K, 63 kPa, Gas, transient hot wire	0.01278 ± 0.0008 W/m/K
312.46 K, 63 kPa, Gas, transient hot wire	0.01291 ± 0.00081 W/m/K
312.66 K, 34 kPa, Gas, transient hot wire	0.01257 ± 0.00079 W/m/K
312.81 K, 61 kPa, Gas, transient hot wire	0.01287 ± 0.00082 W/m/K
312.81 K, 63 kPa, Gas, transient hot wire	0.01297 ± 0.00082 W/m/K
312.83 K, 63 kPa, Gas, transient hot wire	0.01281 ± 0.00081 W/m/K
313.06 K, 34 kPa, Gas, transient hot wire	0.01264 ± 0.0008 W/m/K
313.22 K, 61 kPa, Gas, transient hot wire	0.01297 ± 0.00082 W/m/K
313.22 K, 63 kPa, Gas, transient hot wire	0.01291 ± 0.00081 W/m/K
313.24 K, 63 kPa, Gas, transient hot wire	0.01285 ± 0.0008 W/m/K
313.49 K, 34 kPa, Gas, transient hot wire	0.01265 ± 0.0008 W/m/K
315 K, 42 kPa, Gas, hot wire	0.01266 ± 0.00059 W/m/K and 0.01273 ± 0.0006 W/m/K
315.01 K, 24 kPa, Gas, hot wire	0.01262 ± 0.00059 W/m/K and 0.01267 ± 0.00059 W/m/K
315.03 K, 68 kPa, Gas, hot wire	0.01269 ± 0.0006 W/m/K
315.05 K, 69 kPa, Gas, hot wire	0.01239 ± 0.0006 W/m/K
315.06 K, 73 kPa, Gas, hot wire	0.01282 ± 0.00061 W/m/K
315.08 K, 73 kPa, Gas, hot wire	0.0128 ± 0.0006 W/m/K
315.18 K, 42 kPa, Gas, hot wire	0.0127 ± 0.0006 W/m/K
315.19 K, 24 kPa, Gas, hot wire	0.01259 ± 0.00059 W/m/K
315.23 K, 68 kPa, Gas, hot wire	0.01265 ± 0.00059 W/m/K
315.26 K, 68 kPa, Gas, hot wire	0.01263 ± 0.00059 W/m/K
315.26 K, 73 kPa, Gas, hot wire	0.01275 ± 0.0006 W/m/K and 0.01272 ± 0.0006 W/m/K
315.38 K, 24 kPa, Gas, hot wire	0.01262 ± 0.00059 W/m/K
315.39 K, 24 kPa, Gas, hot wire	0.01261 ± 0.00059 W/m/K
315.39 K, 42 kPa, Gas, hot wire	0.01258 ± 0.00059 W/m/K and 0.0126 ± 0.00059 W/m/K
315.45 K, 73 kPa, Gas, hot wire	0.01275 ± 0.0006 W/m/K and 0.01277 ± 0.0006 W/m/K
315.48 K, 67 kPa, Gas, hot wire	0.01259 ± 0.00059 W/m/K
315.48 K, 68 kPa, Gas, hot wire	0.01258 ± 0.00059 W/m/K
315.6 K, 24 kPa, Gas, hot wire	0.01263 ± 0.00059 W/m/K
315.6 K, 42 kPa, Gas, hot wire	0.01262 ± 0.00059 W/m/K
315.61 K, 41 kPa, Gas, hot wire	0.01258 ± 0.00059 W/m/K
315.65 K, 73 kPa, Gas, hot wire	0.01278 ± 0.0006 W/m/K
315.66 K, 73 kPa, Gas, hot wire	0.01275 ± 0.0006 W/m/K
315.7 K, 67 kPa, Gas, hot wire	0.01258 ± 0.00059 W/m/K and 0.01255 ± 0.00059 W/m/K
315.82 K, 24 kPa, Gas, hot wire	0.01264 ± 0.00059 W/m/K and 0.01263 ± 0.00059 W/m/K
315.84 K, 41 kPa, Gas, hot wire	0.01259 ± 0.00059 W/m/K
315.85 K, 42 kPa, Gas, hot wire	0.01252 ± 0.00059 W/m/K
315.87 K, 73 kPa, Gas, hot wire	0.01277 ± 0.00061 W/m/K and 0.01278 ± 0.00061 W/m/K
315.91 K, 67 kPa, Gas, hot wire	0.01259 ± 0.00059 W/m/K
315.92 K, 67 kPa, Gas, hot wire	0.01258 ± 0.00059 W/m/K
321.61 K, 79 kPa, Gas, transient hot wire	0.01361 ± 0.00085 W/m/K
321.66 K, 65 kPa, Gas, transient hot wire	0.01365 ± 0.00085 W/m/K
321.69 K, 64 kPa, Gas, transient hot wire	0.01346 ± 0.00084 W/m/K
321.92 K, 78 kPa, Gas, transient hot wire	0.01359 ± 0.00084 W/m/K
321.97 K, 66 kPa, Gas, transient hot wire	0.01368 ± 0.0014 W/m/K
322.01 K, 64 kPa, Gas, transient hot wire	0.01355 ± 0.00084 W/m/K
322.24 K, 77 kPa, Gas, transient hot wire	0.01349 ± 0.00084 W/m/K
322.3 K, 66 kPa, Gas, transient hot wire	0.01358 ± 0.001 W/m/K
322.35 K, 64 kPa, Gas, transient hot wire	0.01367 ± 0.00085 W/m/K
322.6 K, 77 kPa, Gas, transient hot wire	0.0137 ± 0.00085 W/m/K
322.68 K, 66 kPa, Gas, transient hot wire	0.01369 ± 0.00099 W/m/K
322.7 K, 62 kPa, Gas, transient hot wire	0.01363 ± 0.00085 W/m/K
322.99 K, 77 kPa, Gas, transient hot wire	0.01375 ± 0.00086 W/m/K
323.07 K, 66 kPa, Gas, transient hot wire	0.01363 ± 0.00085 W/m/K
323.09 K, 62 kPa, Gas, transient hot wire	0.0139 ± 0.00087 W/m/K
329.07 K, 105 kPa, Gas, hot wire	0.01379 ± 0.00065 W/m/K and 0.0138 ± 0.00065 W/m/K
329.1 K, 72 kPa, Gas, hot wire	0.01387 ± 0.00066 W/m/K
329.1 K, 73 kPa, Gas, hot wire	0.01371 ± 0.00065 W/m/K and 0.01367 ± 0.00065 W/m/K
329.12 K, 72 kPa, Gas, hot wire	0.01364 ± 0.00065 W/m/K
329.19 K, 27 kPa, Gas, hot wire	0.01341 ± 0.00063 W/m/K
329.19 K, 120 kPa, Gas, hot wire	0.01389 ± 0.00065 W/m/K
329.2 K, 26 kPa, Gas, hot wire	0.01335 ± 0.00063 W/m/K
329.21 K, 120 kPa, Gas, hot wire	0.01385 ± 0.00065 W/m/K
329.22 K, 27 kPa, Gas, hot wire	0.01411 ± 0.00067 W/m/K
329.23 K, 26 kPa, Gas, hot wire	0.014 ± 0.00066 W/m/K
329.23 K, 105 kPa, Gas, hot wire	0.01384 ± 0.00065 W/m/K and 0.01389 ± 0.00065 W/m/K
329.25 K, 72 kPa, Gas, hot wire	0.01368 ± 0.00064 W/m/K
